Laboratory results reported in US8916702B2 (priority 2012, dated 2014).

The compounds below were run on HCV pseudoparticles (genotype 1a HCV E1 and E2 envelope, H77C isolate) (assay: microbe, parasite or virus in culture). Conditions: Hepatitis C virus, Huh-7, 48 h, HCV pseudoparticle infection of Huh7 cells, luciferase 2 days after infection; average of duplicates.
Format: cell-based

Structure (SMILES) | EC50 [nM]
COc1cc(NC(=O)C(=O)NC[C@H](NC(=O)c2ccc(Nc3nc(NC4(c5ccc(Cl)cc5)CC4)nc(OCC(F)(F)F)n3)cc2)C(=O)O)ccn1 [Compound 1348] | 0.5
COC(=O)[C@H](CNC(=O)C(=O)Nc1cc[nH]n1)NC(=O)c1ccc(Nc2nc(NC3(c4ccc(Cl)cc4)CC3)nc(OCC(F)(F)F)n2)cc1 [Compound 1245] | 1.69
CC(=O)c1ccc(NC(=O)C(=O)NCC(C)(C)CNC(=O)c2ccc(Nc3nc(NC4(c5ccc(Cl)cc5)CC4)nc(OCC(F)(F)F)n3)cc2)cc1 [Compound 1603] | 0.04
COC(=O)[C@H](CNC(=O)C(=O)NC1(CC(C)C)CC1)NC(=O)c1ccc(Nc2nc(NC3(c4ccc(Cl)cc4)CC3)nc(OCC(F)(F)F)n2)cc1 [Compound 1058] | 1.15

Same assay, conditions: Hepatitis C virus, Huh-7, 48 h, HCV pseudoparticles (genotype 1a, H77C) in Huh7 cells; average of duplicate; luciferase 2 days after infection

Structure (SMILES) | EC50 [nM]
CC(C)(CNC(=O)C(=O)NS(=O)(=O)c1ccccc1)CNC(=O)c1ccc(Nc2nc(NC3(c4ccc(Cl)cc4)CC3)nc(OCC(F)(F)F)n2)cc1 [Compound 3021] | 0.73

Same assay, conditions: Hepatitis C virus, Huh-7, 48 h, HCV pseudoparticles, Huh7 cells, luciferase 2 days after infection; average of duplicates

Structure (SMILES) | EC50 [nM]
Cn1nnnc1-c1cccc(NC(=O)C(=O)NC[C@H](NC(=O)c2ccc(Nc3nc(NC4(c5ccc(Cl)cc5)CC4)nc(OCC(F)(F)F)n3)cc2)C(=O)Cl)c1 [Compound 3786] | 0.55
CC(C)(CNC(=O)C(N)=O)CNC(=O)c1c(F)cc(Nc2nc(NC3(c4ccc(Cl)cc4)CC3)nc(OCC(F)(F)F)n2)cc1F [Compound 3812] | 0.5
Cc1ccc(NC(=O)C(=O)NCC(C)(C)CNC(=O)c2ccc(Nc3nc(NC4(c5ccc(Cl)cc5)CC4)nc(OCc4ccc(F)cc4)n3)cc2)cc1 [Compound 3845] | 0.022
COC(=O)[C@H](CNC(=O)C(=O)Nc1ccc(OCCN2C(=O)c3ccccc3C2=O)nc1)NC(=O)c1ccc(Nc2nc(NC3(c4ccc(Cl)cc4)CC3)nc(OCC(F)(F)F)n2)cc1 [Compound 3682] | 0.31

Same assay, conditions: Hepatitis C virus, Huh-7, 48 h, read-out: Activity (EC50 class), HCV pseudoparticle infection of Huh7 cells, luciferase 2 days after infection; EC50 expressed as class A/B

Structure (SMILES) | EC50 [nM]
COc1cc(NC(=O)C(=O)NC[C@H](NC(=O)c2ccc(Nc3nc(NC4(c5ccc(Cl)cc5)CC4)nc(OCC(F)(F)F)n3)cc2)C(=O)O)ccn1 [Compound 1348] | 0.01 to 10
CC(CNC(=O)C(=O)NC[C@H](NC(=O)c1ccc(Nc2nc(NC3(c4ccc(Cl)cc4)CC3)nc(OCC(F)(F)F)n2)cc1)C(=O)O)c1ccccc1 (stereo partly shown) [Compound 1395] | 0.01 to 10
CC(C)(CNC(=O)C(N)=O)CNC(=O)c1ccc(Nc2nc(NC3(c4ccc(Cl)cc4)CC3)nc(OCC(F)(F)F)n2)cc1 [Compound 1552, N^1-(3-(4-((4-((1-(4-chlorophenyl)cyclopropyl)amino)-6-(2,2,2-trifluoroethoxy)-1,3,5-triazin-2-yl)amino)benzamido)-2,2-dimethylpropyl)oxalamide] | 0.01 to 10
CN(C)c1ccc(NC(=O)C(=O)NCC(C)(C)CNC(=O)c2ccc(Nc3nc(NC4(c5ccc(Cl)cc5)CC4)nc(OCC(F)(F)F)n3)cc2)cc1 [Compound 1602] | 0.01 to 10
COC(=O)[C@H](CNC(=O)C(=O)N[C@@H]1C[C@H]2C[C@@H]([C@H]1C)C2(C)C)NC(=O)c1ccc(Nc2nc(NC3(c4ccc(Cl)cc4)CC3)nc(OCC(F)(F)F)n2)cc1 [Compound 1069] | 0.01 to 10
CCC1(CC)CC1CNC(=O)C(=O)NC[C@H](NC(=O)c1ccc(Nc2nc(NC3(c4ccc(Cl)cc4)CC3)nc(OCC(F)(F)F)n2)cc1)C(=O)OC (stereo partly shown) [Compound 1459] | 0.01 to 10
COC(=O)[C@H](CNC(=O)C(=O)Nc1cccnc1)NC(=O)c1ccc(Nc2nc(NC3(c4ccc(Cl)cc4)CC3)nc(OCC(F)(F)F)n2)cc1 [Compound 1259] | 0.01 to 10
COC(=O)[C@H](CNC(=O)C(=O)Nc1cc[nH]n1)NC(=O)c1ccc(Nc2nc(NC3(c4ccc(Cl)cc4)CC3)nc(OCC(F)(F)F)n2)cc1 [Compound 1245] | 0.01 to 10
CC(C)(CNC(=O)C(=O)Nc1cccc(F)c1)CNC(=O)c1ccc(Nc2nc(NC3(c4ccc(Cl)cc4)CC3)nc(OCC(F)(F)F)n2)cc1 [Compound 1546] | 0.01 to 10
COC(=O)[C@H](CCNC(=O)C(=O)NCCc1ccccc1)NC(=O)c1ccc(Nc2nc(NC3(c4ccc(Cl)cc4)CC3)nc(OCC(F)(F)F)n2)cc1 [Compound 1308] | 0.01 to 10
O=C(NCC[C@@H](NC(=O)c1ccc(Nc2nc(NC3(c4ccc(Cl)cc4)CC3)nc(OCC(F)(F)F)n2)cc1)C(=O)O)C(=O)Nc1ccc(F)c(F)c1F [Compound 1538] | 0.01 to 10
CC(=O)c1ccc(NC(=O)C(=O)NCC(C)(C)CNC(=O)c2ccc(Nc3nc(NC4(c5ccc(Cl)cc5)CC4)nc(OCC(F)(F)F)n3)cc2)cc1 [Compound 1603] | 0.01 to 10
COC(=O)[C@@H](CCNC(=O)C(=O)Nc1ccccc1-c1ccccc1)NC(=O)c1ccc(Nc2nc(NC3(c4ccc(Cl)cc4)CC3)nc(OCC(F)(F)F)n2)cc1 [Compound 1528] | 0.01 to 10
COC(=O)[C@H](CCNC(=O)C(=O)Nc1ccnc(OC)c1)NC(=O)c1ccc(Nc2nc(NC3(c4ccc(Cl)cc4)CC3)nc(OCC(F)(F)F)n2)cc1 [Compound 1217] | 0.01 to 10
CC(C)(C)OC(=O)NC1(CNC(=O)C(=O)NCC[C@H](NC(=O)c2ccc(Nc3nc(NC4(c5ccc(Cl)cc5)CC4)nc(OCC(F)(F)F)n3)cc2)C(=O)O)CC1 [Compound 1425] | 0.01 to 10
COC(=O)[C@H](CNC(=O)C(=O)NC1(CC(C)C)CC1)NC(=O)c1ccc(Nc2nc(NC3(c4ccc(Cl)cc4)CC3)nc(OCC(F)(F)F)n2)cc1 [Compound 1058] | 0.01 to 10
COC(=O)[C@H](CCNC(=O)C(=O)Nc1cncn1C)NC(=O)c1ccc(Nc2nc(NC3(c4ccc(Cl)cc4)CC3)nc(OCC(F)(F)F)n2)cc1 [Compound 1225] | 0.01 to 10
COc1ccc(CCNC(=O)C(=O)NCC[C@H](NC(=O)c2ccc(Nc3nc(NC4(c5ccc(Cl)cc5)CC4)nc(OCC(F)(F)F)n3)cc2)C(=O)O)cc1 [Compound 1331] | 0.01 to 10
COc1cccc(-c2ccc(NC(=O)C(=O)NCC(C)(C)CNC(=O)c3ccc(Nc4nc(NC5(c6ccc(Cl)cc6)CC5)nc(OCC(F)(F)F)n4)cc3)cc2)c1 [Compound 1581] | 0.01 to 10
COC(=O)[C@H](CNC(=O)C(=O)NC1CCCC(C)C1)NC(=O)c1ccc(Nc2nc(NC3(c4ccc(Cl)cc4)CC3)nc(OCC(F)(F)F)n2)cc1 (stereo partly shown) [Compound 1059] | 0.01 to 10
COC(=O)[C@H](CCNC(=O)C(=O)NCC1OCCc2ccccc21)NC(=O)c1ccc(Nc2nc(NC3(c4ccc(Cl)cc4)CC3)nc(OCC(F)(F)F)n2)cc1 (stereo partly shown) [Compound 1320] | 0.01 to 10
COC(=O)[C@H](CNC(=O)C(=O)NC1CCC(C(C)(C)C)CC1)NC(=O)c1ccc(Nc2nc(NC3(c4ccc(Cl)cc4)CC3)nc(OCC(F)(F)F)n2)cc1 (stereo partly shown) [Compound 1062] | 0.01 to 10
COCCNC(=O)C(=O)NC[C@H](NC(=O)c1ccc(Nc2nc(NC3(c4ccc(Cl)cc4)CC3)nc(OCC(F)(F)F)n2)cc1)C(=O)O [Compound 1046] | 0.01 to 10

Same assay, conditions: Hepatitis C virus, Huh-7, 48 h, read-out: Activity (EC50 class), HCV pseudoparticles, Huh7 cells, luciferase 2 days after infection; average of duplicates

Structure (SMILES) | EC50 [nM]
Cc1cc2nc(NC(=O)C(=O)NCC(C)(C)CNC(=O)c3ccc(Nc4nc(NC5(c6ccc(Cl)cc6)CC5)nc(OCC(F)(F)F)n4)cc3)sc2cc1C [Compound 3820] | 0.01 to 10
O=C(NCC[C@H](NC(=O)c1ccc(Nc2nc(NC3(c4ccc(Cl)cc4)CC3)nc(OCC(F)(F)F)n2)cc1)C(=O)O)C(=O)Nc1cccc(S(=O)(=O)N2CCCCC2)c1 [Compound 3641] | 0.01 to 10
Cn1nnnc1-c1cccc(NC(=O)C(=O)NC[C@H](NC(=O)c2ccc(Nc3nc(NC4(c5ccc(Cl)cc5)CC4)nc(OCC(F)(F)F)n3)cc2)C(=O)Cl)c1 [Compound 3786] | 0.01 to 10
Cc1nc(-c2cccc(NC(=O)C(=O)NCC[C@H](NC(=O)c3ccc(Nc4nc(NC5(c6ccc(Cl)cc6)CC5)nc(OCC(F)(F)F)n4)cc3)C(=O)O)c2)cs1 [Compound 3642] | 0.01 to 10
CC(C)(CNC(=O)C(N)=O)CNC(=O)c1c(F)cc(Nc2nc(NC3(c4ccc(Cl)cc4)CC3)nc(OCC(F)(F)F)n2)cc1F [Compound 3812] | 0.01 to 10
Cn1cnnc1-c1cccc(NC(=O)C(=O)NCC[C@H](NC(=O)c2ccc(Nc3nc(NC4(c5ccc(Cl)cc5)CC4)nc(OCC(F)(F)F)n3)cc2)C(=O)O)c1 [Compound 3643] | 10 to 1000
COC(=O)[C@H](CNC(=O)C(=O)Nc1cccc(-c2ccccc2)c1)NC(=O)c1ccc(Nc2nc(NC3(c4ccc(Cl)cc4)CC3)nc(OCC(F)(F)F)n2)cc1 [Compound 3695] | 0.01 to 10
COC(=O)[C@H](CNC(=O)C(=O)Nc1cccc(OC(F)F)c1)NC(=O)c1ccc(Nc2nc(NC3(c4ccc(Cl)cc4)CC3)nc(OCC(F)(F)F)n2)cc1 [Compound 3708] | 0.01 to 10
Cc1ccc(NC(=O)C(=O)NCC(C)(C)CNC(=O)c2ccc(Nc3nc(NC4(c5ccc(Cl)cc5)CC4)nc(OCc4ccc(F)cc4)n3)cc2)cc1 [Compound 3845] | 0.01 to 10
COC(=O)[C@H](CNC(=O)C(=O)Nc1ccc(OCCN2C(=O)c3ccccc3C2=O)nc1)NC(=O)c1ccc(Nc2nc(NC3(c4ccc(Cl)cc4)CC3)nc(OCC(F)(F)F)n2)cc1 [Compound 3682] | 0.01 to 10

Same assay, conditions: Hepatitis C virus, Huh-7, read-out: Activity (EC50 class), HCV pseudoparticles (genotype 1a, H77C) in Huh7 cells; EC50 expressed as class A/B

Structure (SMILES) | EC50 [nM]
COC(=O)[C@H](CNC(=O)C(=O)Nc1ccc(-n2cnc(Cl)c2Cl)cc1)NC(=O)c1ccc(Nc2nc(NC3(c4ccc(Cl)cc4)CC3)nc(OCC(F)(F)F)n2)cc1 [Compound 3095] | 0.01 to 10
O=C(Nc1ccc(F)cc1)C(=O)N1CCCC(CNC(=O)c2ccc(Nc3nc(NC4(c5ccc(Cl)cc5)CC4)nc(OCC(F)(F)F)n3)cc2)C1 (stereo not shown) [Compound 3482] | 0.01 to 10
O=C(NC/C(=N/C(=O)c1ccc(Nc2nc(NC3(c4ccc(Cl)cc4)CC3)nc(OCC(F)(F)F)n2)cc1)C(=O)O)C(=O)Nc1ccc(Cc2ccccc2)cc1 [Compound 3159] | 0.01 to 10
CN(CCCN(C)C(=O)c1ccc(Nc2nc(NC3(c4ccc(Cl)cc4)CC3)nc(OCC(F)(F)F)n2)cc1)C(=O)C(=O)Nc1ccccc1 [Compound 3428] | 0.01 to 10
O=C(N[C@H](CCNC(=O)c1ccc(Nc2nc(NC3(c4ccc(Cl)cc4)CC3)nc(OCC(F)(F)F)n2)cc1)C(=O)O)C(=O)N1CCc2ccccc2C1 [Compound 3495] | 0.01 to 10
CC(C)(CNC(=O)C(=O)NS(=O)(=O)c1ccccc1)CNC(=O)c1ccc(Nc2nc(NC3(c4ccc(Cl)cc4)CC3)nc(OCC(F)(F)F)n2)cc1 [Compound 3021] | 0.01 to 10
COC(=O)[C@H](CNC(=O)C(=O)Nc1ccc(N2CCN(Cc3ccccc3)CC2)cc1)NC(=O)c1ccc(Nc2nc(NC3(c4ccc(Cl)cc4)CC3)nc(OCC(F)(F)F)n2)cc1 [Compound 3102] | 0.01 to 10
O=C(CNC(=O)C(=O)Nc1cccc(F)c1)CNC(=O)c1ccc(Nc2nc(NC3(c4ccc(Cl)cc4)CC3)nc(OCC(F)(F)F)n2)cc1 [Compound 3363] | 0.01 to 10
CC(C)(CNC(=O)C(=O)Nc1cccc2c1-c1ccccc1C2=O)CNC(=O)c1ccc(Nc2nc(NC3(c4ccc(Cl)cc4)CC3)nc(OCC(F)(F)F)n2)cc1 [Compound 3344] | 0.01 to 10
COC(=O)[C@H](CNC(=O)C(=O)Nc1ccc(OC2CCOCC2)cc1)NC(=O)c1ccc(Nc2nc(NC3(c4ccc(Cl)cc4)CC3)nc(OCC(F)(F)F)n2)cc1 [Compound 3208] | 0.01 to 10
CC(C)(CNC(=O)C(=O)Nc1cn[nH]c1)CNC(=O)c1ccc(Nc2nc(NC3(c4ccc(Cl)cc4)CC3)nc(OCC(F)(F)F)n2)cc1 [Compound 3033] | 0.01 to 10
CC(C)(CNC(=O)C(=O)Nc1ccccn1)CNC(=O)c1ccc(Nc2nc(NC3(c4ccc(Cl)cc4)CC3)nc(OCC(F)(F)F)n2)cc1 [Compound 3248] | 0.01 to 10
COc1ccc(-c2ccccc2)c(NC(=O)C(=O)NCC(C)(C)CNC(=O)c2ccc(Nc3nc(NC4(c5ccc(Cl)cc5)CC4)nc(OCC(F)(F)F)n3)cc2)c1 [Compound 3014] | 0.01 to 10
